We go through 9 compounds from PubChem BioAssay (NCI).

Values joined by “and” are separate entries in the source; they are usually repeats but may differ in a detail not shown here. Equal values may be shown once.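 Growth conditions: 96-well plates. Treatment: test compound, 48 hours, 5 concentrations. Analysis: linear interpolation between bracketing concentrations; unreached endpoints set to highest concentration. GI50 is the concentration that inhibits growth by half. TGI marks complete inhibition of growth.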 A value given as a limit tells only on which side of the number the result lay.

Some test systems named below: SR leukemia; RXF 393 renal; U251 CNS; SNB-75 CNS; HCT-116 colon; SF-295 CNS; OVCAR-8 ovarian; HOP-62 NSCLC; NCI-H460 lung; UACC-257 melanoma.
Holding throughout (experiment): NCI tumour cell line growth inhibition, 48 h

Regarding `CN1CCN(Cc2ccc(-c3cc4ncnc(Nc5ccc(OCc6cccc(F)c6)c(Cl)c5)c4s3)o2)CC1`, the GI50 with SR leukemia was 4.43 µM; in the assay on RXF 393 renal it was 3.33 µM; in the assay on U251 CNS, 3.34 µM; in the assay with SNB-75 CNS it was 4.29 µM; in the assay with HCT-116 colon, 3.62 µM; in the assay on SF-295 CNS, 5.06 µM. Further, the GI50 is 4.53 µM in the assay with OVCAR-8 ovarian, 4.64 µM in the assay on HOP-62 NSCLC, 4.56 µM with NCI-H460 lung and 4.26 µM in the assay with UACC-257 melanoma. Besides, the TGI with SR leukemia came out at 10 µM; with RXF 393 renal it was 7.52 µM; with U251 CNS, 7.12 µM; in the assay on SNB-75 CNS, 9.11 µM; with HCT-116 colon, 7.42 µM; in the assay on SF-295 CNS, 10.4 µM. Also, the TGI came to 9.62 µM with OVCAR-8 ovarian, 9.12 µM with HOP-62 NSCLC, 8.85 µM in the assay on NCI-H460 lung and 8.37 µM in the assay with UACC-257 melanoma.
Take `O=C1c2ccccc2-c2c1c1ccccc1c(=O)n2CCCNCCCn1c2c(c3ccccc3c1=O)C(=O)c1ccccc1-2`: the GI50 in the assay with SR leukemia was 14.3 µM; with RXF 393 renal, 4.07 µM; in the assay with U251 CNS, 1.12 µM; in the assay with SNB-75 CNS it was 6.1 µM; in the assay with HCT-116 colon it was 1.75 µM; in the assay with SF-295 CNS it was 3.52 µM. Moreover, the GI50 in the assay with OVCAR-8 ovarian was 2.46 µM; in the assay on HOP-62 NSCLC, 2.68 µM; with NCI-H460 lung, 2.31 µM; in the assay with UACC-257 melanoma it was 10.2 µM. Further, the TGI was above 50 µM in the assay with SR leukemia; above 29.1 µM in the assay on RXF 393 renal; 2.67 µM in the assay on U251 CNS; above 50 µM in the assay on SNB-75 CNS; above 28.9 µM in the assay with HCT-116 colon; above 21.8 µM in the assay with SF-295 CNS. In addition, the TGI with OVCAR-8 ovarian was above 26 µM; in the assay on HOP-62 NSCLC, 9.19 µM; in the assay on NCI-H460 lung, above 17.7 µM; in the assay on UACC-257 melanoma it was 25.7 µM.
In the case of `O=C1OC(c2ccco2)=N/C1=C\c1ccc(Cl)c(Cl)c1`, the TGI with SR leukemia, in the assay with RXF 393 renal, in the assay on U251 CNS, with SNB-75 CNS, in the assay with HCT-116 colon and in the assay on SF-295 CNS was above 100 µM in each case. The TGI was above 100 µM with OVCAR-8 ovarian, 94.6 µM with HOP-62 NSCLC, above 100 µM in the assay on NCI-H460 lung and above 100 µM in the assay with UACC-257 melanoma.
Turning to `Cc1ccc(C)c(NC(=O)C(=O)C(c2cnc3ccc([N+](=O)[O-])cc3n2)[N+](=O)[O-])c1` (stereo not drawn), the TGI in the assay with SR leukemia, in the assay with RXF 393 renal, in the assay on U251 CNS, with SNB-75 CNS, in the assay with HCT-116 colon and in the assay on SF-295 CNS was above 100 µM in each case. Moreover, the TGI with OVCAR-8 ovarian was 48.2 µM; in the assay with HOP-62 NSCLC, above 100 µM; with NCI-H460 lung, above 100 µM; in the assay on UACC-257 melanoma it was above 100 µM.
Take `CN(C)/[N+]([O-])=N/Oc1cc(Nc2cccc(C(=O)O)c2)c([N+](=O)[O-])cc1[N+](=O)[O-]`: the GI50 in the assay on SR leukemia was 43.9 µM; with RXF 393 renal it was above 100 µM; in the assay with U251 CNS it was 35.3 µM; in the assay on SNB-75 CNS, above 100 µM; in the assay on HCT-116 colon it was 34.5 µM; with SF-295 CNS, above 100 µM. Besides, the GI50 was above 100 µM with OVCAR-8 ovarian, 32.2 µM in the assay with HOP-62 NSCLC, above 100 µM with NCI-H460 lung and above 100 µM in the assay on UACC-257 melanoma. In addition, the TGI with SR leukemia, in the assay with RXF 393 renal, with U251 CNS, in the assay with SNB-75 CNS, with HCT-116 colon and in the assay on SF-295 CNS was above 100 µM in each case. For the same compound, the TGI in the assay with OVCAR-8 ovarian, in the assay on HOP-62 NSCLC, in the assay with NCI-H460 lung and in the assay on UACC-257 melanoma was above 100 µM in each case.
For the compound `COc1ccc(C(=O)/C=C/c2ccc(O)c(O)c2F)c(OC)c1`, the GI50 is 0.072 µM with SR leukemia; 11.6 µM in the assay with RXF 393 renal; 4.12 µM in the assay on U251 CNS; 4.53 µM with SNB-75 CNS; 2.66 µM in the assay on HCT-116 colon; 10.9 µM in the assay on SF-295 CNS. In addition, the GI50 is 8.81 µM in the assay with OVCAR-8 ovarian, 19.8 µM in the assay with HOP-62 NSCLC and 10.5 µM with UACC-257 melanoma. For the same compound, the TGI in the assay with RXF 393 renal is 26.4 µM and 32.1 µM; in the assay on U251 CNS, 23.1 µM and 17.9 µM; in the assay with SNB-75 CNS, 40.3 µM and 18.9 µM; with HCT-116 colon, 14 µM and 10 µM; in the assay with SF-295 CNS, 26.3 µM and 34.4 µM; with OVCAR-8 ovarian it was 65.5 µM and > 100 µM. In addition, the TGI in the assay on HOP-62 NSCLC is 37.1 µM and > 100 µM; in the assay with NCI-H460 lung it was 13 µM and 15.9 µM; in the assay on UACC-257 melanoma it was 18.4 µM and 22.3 µM.
Consider `CCC1=C(C)/C(=C/c2[nH]c(C)c(C(=O)CCCCC(=O)OC)c2C)N=C1c1ccc[nH]1`, for which the GI50 was 1.3 µM in the assay with SR leukemia; 11.9 µM with RXF 393 renal; 12.6 µM in the assay on U251 CNS; 12.2 µM with SNB-75 CNS; 7.37 µM in the assay with HCT-116 colon; 18.6 µM in the assay with SF-295 CNS. Besides, the GI50 in the assay on OVCAR-8 ovarian was 7.46 µM; in the assay with HOP-62 NSCLC, 13.9 µM; in the assay on NCI-H460 lung it was 37.6 µM; in the assay on UACC-257 melanoma, 16.1 µM. Moreover, the TGI in the assay with SR leukemia was 5.49 µM; in the assay with RXF 393 renal it was 38.6 µM; in the assay with U251 CNS it was 33.1 µM; with SNB-75 CNS it was 27 µM; with HCT-116 colon, above 50.1 µM; in the assay on SF-295 CNS, 42 µM. Besides, the TGI in the assay on OVCAR-8 ovarian is 42.6 µM; in the assay on HOP-62 NSCLC, 28.5 µM; in the assay with NCI-H460 lung, above 100 µM; in the assay on UACC-257 melanoma it was 44.2 µM.
With `O=C1C2C(C(=O)N1O)N(Cc1ccccc1)C(=O)N2Cc1ccccc1` (stereo not drawn), the TGI with SR leukemia, in the assay with RXF 393 renal, with U251 CNS, in the assay on SNB-75 CNS, in the assay with HCT-116 colon and in the assay on SF-295 CNS was above 100 µM each time. The TGI in the assay with OVCAR-8 ovarian, in the assay on HOP-62 NSCLC, in the assay with NCI-H460 lung and with UACC-257 melanoma was above 100 µM throughout.
On to `CC(C)(C)[OH+][O-].[O-]c1ccc(Cl)cc1C=Nc1ccc(Cl)cc1[O-].[O]=[V]`, for which the GI50 was 7.79 µM with SR leukemia; 17.3 µM with RXF 393 renal; 20.2 µM in the assay with U251 CNS; 12.1 µM in the assay with SNB-75 CNS; 21.4 µM in the assay on HCT-116 colon; 10.7 µM with SF-295 CNS. The GI50 in the assay with OVCAR-8 ovarian is 23 µM; in the assay on HOP-62 NSCLC, 23.7 µM; in the assay on NCI-H460 lung it was 18 µM; with UACC-257 melanoma it was 13.9 µM. For the same compound, the TGI was above 100 µM in the assay with SR leukemia; 36.6 µM in the assay on RXF 393 renal; 69.2 µM in the assay with U251 CNS; 30.8 µM in the assay on SNB-75 CNS; 98.9 µM in the assay with HCT-116 colon; 33.5 µM in the assay with SF-295 CNS. Moreover, the TGI in the assay with OVCAR-8 ovarian was above 100 µM; with HOP-62 NSCLC it was 74.1 µM; in the assay with NCI-H460 lung it was 46.3 µM; with UACC-257 melanoma, 36.4 µM.
